# Source: patent publication US10508113B2, “Inhibitors of tyrosine kinase 2 mediated signaling” (AbbVie Inc., priority 2018, dated 2019)
# Assays:
# [1] = target: T1, Jak1 (Homo sapiens, UniProt P23458); assay: Jak1 (PSTAT3 TF1) alpha screen assay: inhibition of IL-6 induced phosphorylation of STAT3 in TF1 cells; type: cell-based; settings: calculated from tabulated EC50 data (Jak1 / Tyk2)
# T1 construct: endogenous in cells; host or cells: TF1 cells
# Description: 2. JAK1 (PSTAT3 TF1) ALPHA SCREEN ASSAY
# IL-6 is known to transduce its signal through IL-6 receptor via Jak1. Activity against Jak1 was therefore measured by determining inhibition of IL-6 induced phosphorylation of STAT3 in TF1 cells.
# Cell Type: TF1 Cells; Culture Medium: RPMI 1640 Medium, 2mM L-glutamine, 10% heat- inactivated fetal bovine serum (FBS), 10 mM hydroxyethyl piperazineethanesulfonic acid (HEPES), and 2 ng/mL recombinant human interleukin-6(IL-6); Assay Medium: Dulbecco's Modified Eagle Medium (DMEM) medium with 2 mM L-glutamine, 10 mM HEPES, 100 U/mL penicillin/streptomycin, 1.5 g/L sodium bicarbonate, 4.5 g/L glucose, 1 mM sodium pyruvate, 10% heat-inactivated FBS; Compound Preparation: Compounds are dissolved in 100% dimethyl sulfoxide (DMSO).
# Day One—Starve Cells: 4 Flasks for one 384 plate (spin down @1000 rpm for 10 minutes and add RPMI 1640 Medium, 2 mM L-glutamine, 10% FBS, 10 mM HEPES with no IL-6 -incubate overnight).
# (§1) Day Two—Compound Dilutions:
# i. Manual 8-point 1:5 dilution curve: 5 mM top concentration dispensed in row A of a
# Corning 96-well polypropylene plate, columns 2-12. DMSO dispensed in position A01 for low and high controls. Compounds were serially diluted 1:5 by adding 10 μL stock to […] DMSO down the plate.
# ii. Media dilution of compounds: Serially diluted compounds were further diluted 1:12.5 in assay medium by adding 4 μL compound to 46 μL assay medium in a Corning 96-well polypropylene plate.
# 384 Alpha Screen Plate Set up: Transfer 2.5 μL/well of compound solution from assay media dilution plate. Replicates were vertical, one column of the 96-well dilution plate goes into one column on the 384-well plate twice. Plated 1×10^5 starved cells/well in 5 μL. Washed cells in 10 mL DMEM medium after spinning down. Brought cell pellet up in assay media. Counted live cells. Multiplied by dilution factor and 10,000 (constant) to get the concentration of viable cells. Multiplied by volume of assay media used to bring up cells to get the total number of live cells. Divided by 20,000,000 cells/mL to get the volume needed. Cells were plated at 5 μL/well in gray Alpha Screen 384-well plate. Spinned the plate to bring the contents to the bottom of the wells at 300 rpm for 60 seconds. Top final compound concentration: 25 μM. Sealed with adhesive and tapped gently. Incubated plate at 37° C. for 30 minutes. c. IL-6 Stimulation (pSTAT3)
# Once cells were in incubator, immediately prepared working stock of IL-6 (100 ng/mL final concentration). IL-6 stock=10 μg/mL of IL-6 in phosphate buffered saline with 0.1% bovine serum albumin. Diluted 1:25 by adding 60 μL stock IL-6 to 1440 μL assay media. Added 2.5 μL IL-6 to each well. Spinned plate at 300 rpm briefly; tapped the plate gently before covering with an adhesive seal. Incubated plate at 37° C. for 30 minutes.
# Added 2.5 μL of 5X Lysis buffer to each well. Incubated at room temperature on orbital shaker for 10 minutes.
# e. Protein (A) Acceptor Beads Preparation:
# (§2) Phosphorylated Signal Transducer and Activator of Transcription 3 (pSTAT3) was quantified using the PerkinElmer SureFire pSTAT3 (Tyrosine 705) Assay. Calculated total volume needed (wells×154 μL×25%). Divided total volume by 5 to get volume of activation buffer. Subtracted volume of activation buffer from total volume and divide by 40 to get volume of acceptor beads (add last). Total volume−acceptor bead volume−activation buffer=volume of reaction buffer. Added 15 μL to each well and covered with foil. Shaked on orbital shaker for 2 hours at 500 rpm.
# (§3) f. Streptavidin Donor Beads Preparation:
# Calculated total volume needed (wells×[…]×25%). Divided total volume by 20 to get volume of donor beads (add last). Subtracted volume of donor beads from total volume to get volume of dilution buffer. Added 6 μL to each well and covered with foil. Shaked on orbital shaker overnight at 500 rpm.
# Read plate on a Perkin Elmer Envision. […]
# [2] = target: T2, Jak2 (Homo sapiens, UniProt O60674); assay: Jak2 (PSTATS UT7) alpha screen assay: inhibition of EPO induced phosphorylation of STAT5 in UT7 cells; type: cell-based; settings: calculated from tabulated EC50 data (Jak2 / Tyk2)
# T2 construct: Cell Type: UT7 cells engineered to express the erythropoietin (EPO) receptor; endogenous in cells; host or cells: UT7 cells engineered to express the EPO receptor
# T2 sequence (O60674 whole entry): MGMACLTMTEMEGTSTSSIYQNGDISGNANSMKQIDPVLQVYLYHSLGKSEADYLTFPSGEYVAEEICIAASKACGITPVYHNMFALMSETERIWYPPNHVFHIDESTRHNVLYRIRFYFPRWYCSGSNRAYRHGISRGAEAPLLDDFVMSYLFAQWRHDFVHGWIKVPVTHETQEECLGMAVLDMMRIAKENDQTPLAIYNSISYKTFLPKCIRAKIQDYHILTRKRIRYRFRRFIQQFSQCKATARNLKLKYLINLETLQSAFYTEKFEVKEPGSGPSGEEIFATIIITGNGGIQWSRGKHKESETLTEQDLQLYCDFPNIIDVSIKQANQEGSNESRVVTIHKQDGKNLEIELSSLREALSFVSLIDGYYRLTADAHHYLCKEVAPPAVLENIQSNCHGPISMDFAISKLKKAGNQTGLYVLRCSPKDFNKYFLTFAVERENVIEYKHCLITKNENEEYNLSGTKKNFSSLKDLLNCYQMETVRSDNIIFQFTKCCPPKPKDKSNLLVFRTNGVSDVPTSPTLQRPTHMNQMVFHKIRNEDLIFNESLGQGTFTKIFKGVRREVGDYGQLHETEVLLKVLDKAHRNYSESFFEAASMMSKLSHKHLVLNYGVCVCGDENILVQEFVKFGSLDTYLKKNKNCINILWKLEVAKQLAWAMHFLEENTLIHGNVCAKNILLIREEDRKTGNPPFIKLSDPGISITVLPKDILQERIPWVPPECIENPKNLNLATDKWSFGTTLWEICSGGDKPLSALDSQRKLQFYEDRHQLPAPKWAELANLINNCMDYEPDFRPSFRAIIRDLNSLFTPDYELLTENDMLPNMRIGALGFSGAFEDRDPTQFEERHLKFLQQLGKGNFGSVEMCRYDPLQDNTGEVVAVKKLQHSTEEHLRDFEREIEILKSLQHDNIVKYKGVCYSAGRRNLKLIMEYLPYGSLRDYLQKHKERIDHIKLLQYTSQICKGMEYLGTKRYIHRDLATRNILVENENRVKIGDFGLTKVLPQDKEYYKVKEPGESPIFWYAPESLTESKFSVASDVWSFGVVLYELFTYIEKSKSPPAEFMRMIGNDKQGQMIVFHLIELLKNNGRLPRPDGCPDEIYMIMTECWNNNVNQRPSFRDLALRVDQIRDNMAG
# Description: 3. JAK2 (PSTATS UT7) ALPHA SCREEN ASSAY
# Erythropoietin (EPO) is known to transduce its signal through EPO receptor via Jak2. Activity against Jak2 was therefore measured by determining inhibition of EPO induced phosphorylation of STATS in UT7 cells. […] Materials
# Cell Type: UT7 cells engineered to express the erythropoietin (EPO) receptor; Culture Medium: Dulbecco's Modified Eagle Medium (DMEM) with 2 mM L-glutamine, 10 mM hydroxyethyl piperazineethanesulfonic acid (HEPES), 10% heat-inactivated fetal bovine serum (FBS) and Stock EPO (5000U in 250 uL, need 5U/mL, so add 250 μL to 1L of media); Assay Medium: 5% FBS ultra-low IgG and 1% Pen/Strep. Compounds were made-up in 100% dimethyl sulfoxide (DMSO).
# Day One - Starve Cells: 4 Flasks for one 384 plate (spin down @1000 rpm for 10 minutes and add DMEM with no EPO).
# as §1
# i. Manual 8-point 1:3 dilution curve: 5 mM top concentration dispensed in row A of a
# Corning 96-well polypropylene plate, columns 2-12. DMSO dispensed in position A01 for low and high controls. Compounds were serially diluted 1:3 by adding 10 μL stock to 20 μL DMSO down the plate.
# ii. Media dilution of compounds: Serially diluted compounds were diluted 1:50 in assay medium by adding 4 μL compound to 196 μL assay medium in a Corning 96-well polypropylene plate.
# 384 Alpha Screen Plate Set up: Transferred 2.5 μL/well of compound solution from last dilution plate. Replicates were vertical, so that one column of the 96-well dilution plate goes into one column on the 384-well plate twice. Plated 1×10^5 starved cells/well in 5μL. Washed cells in 10 mL Hank's balanced salt solution (HBSS) after spinning down. Counted live cells. Multiplied by dilution factor and 10,000 (constant) to get the concentration of viable cells. Multiplied by volume of cells to get the total number of live cells. Divided by 20,000,000 cells/mL to get the volume needed. Subtracted the original volume to get the volume to be added to get the final concentration of cells. Mixed in reservoir if needed, ensuring that all cell clumps are broken up (if not broken up, they were removed from the suspension). Cells were plated at 5 μL/well in gray Alpha Screen 384-well plate. Spinned the plate to bring the contents to the bottom of the wells at 400 rpm for 2 minutes. Top final compound concentration: 25 μM. Sealed with adhesive and tapped gently. Incubated cells at 37° C. for 30 minutes.
# c. EPO Stimulation (p STATS)
# Once cells were in incubator, immediately prepared working stock of EPO (1 nM final assay concentration). EPO stock=2860 nM of sterile filtered liquid in sodium citrate buffer (1 liter of ddH2O containing 5.9 g of sodium citrate, 5.8 g of sodium chloride and 0.06 g of citric acid). Diluted 1:22.72 by adding 4.44 stock EPO to 95.6 pi assay media, then dilute again […] depending on how much volume is needed for the assay plates. Used assay medium to bring to volume. Added 2.5 μL EPO to each well. Spinned plate at 400 rpm briefly; tap the plate gently before covering with an adhesive seal. Cells were incubated at 37° C. for 20 minutes.
# Added 2.5 μL of 5X Lysis buffer to each well. Spinned plate at 400 rpm briefly. Incubated at room temperature (on orbital shaker) for 10 minutes.
# e. Protein (A) Acceptor Beads Preparation: (Light sensitive)
# as §2, with “5 (pSTAT5)” for “3 (pSTAT3)”, “pSTATS” for “pSTAT3”, “694/699)” for “705)”, “(wells×15 μL×30%).” for “(wells×154 μL×25%).”, “volume - acceptor” for “volume−acceptor”, “volume - activation buffer to get volume” for “volume−activation buffer=volume”
# as §3
# Calculated total volume needed (wells×6μL×30%). […]
# T1 sequence (P23458 whole entry): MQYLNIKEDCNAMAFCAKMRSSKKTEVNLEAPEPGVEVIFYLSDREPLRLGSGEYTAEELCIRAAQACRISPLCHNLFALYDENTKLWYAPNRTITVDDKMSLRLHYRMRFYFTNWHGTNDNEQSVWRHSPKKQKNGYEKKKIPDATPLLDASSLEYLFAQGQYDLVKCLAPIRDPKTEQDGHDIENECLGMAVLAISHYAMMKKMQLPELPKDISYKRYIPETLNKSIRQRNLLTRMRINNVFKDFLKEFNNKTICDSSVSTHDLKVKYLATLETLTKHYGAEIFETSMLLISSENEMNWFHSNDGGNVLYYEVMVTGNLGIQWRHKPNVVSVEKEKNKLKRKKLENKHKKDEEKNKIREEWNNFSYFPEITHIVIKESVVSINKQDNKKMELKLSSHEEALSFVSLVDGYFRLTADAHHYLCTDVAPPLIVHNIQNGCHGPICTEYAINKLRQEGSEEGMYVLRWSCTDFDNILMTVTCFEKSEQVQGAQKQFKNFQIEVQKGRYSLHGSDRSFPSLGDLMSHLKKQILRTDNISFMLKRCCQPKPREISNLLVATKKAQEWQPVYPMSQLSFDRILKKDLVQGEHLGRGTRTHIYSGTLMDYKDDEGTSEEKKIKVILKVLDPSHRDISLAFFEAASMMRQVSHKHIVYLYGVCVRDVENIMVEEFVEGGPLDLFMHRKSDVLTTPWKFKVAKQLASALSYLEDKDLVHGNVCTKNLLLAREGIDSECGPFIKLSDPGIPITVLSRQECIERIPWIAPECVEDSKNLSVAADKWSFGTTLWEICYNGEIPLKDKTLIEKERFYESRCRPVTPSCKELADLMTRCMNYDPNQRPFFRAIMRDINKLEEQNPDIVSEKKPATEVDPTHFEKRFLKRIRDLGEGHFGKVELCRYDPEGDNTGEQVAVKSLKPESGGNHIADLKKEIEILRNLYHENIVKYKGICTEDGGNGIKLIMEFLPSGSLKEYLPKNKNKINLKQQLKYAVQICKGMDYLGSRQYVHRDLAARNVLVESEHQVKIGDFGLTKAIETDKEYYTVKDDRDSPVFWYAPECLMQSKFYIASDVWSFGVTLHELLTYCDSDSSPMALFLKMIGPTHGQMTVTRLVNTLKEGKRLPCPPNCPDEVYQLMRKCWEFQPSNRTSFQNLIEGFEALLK
Structure (SMILES),Tyk2 selectivity over Jak1 [1],Tyk2 selectivity over Jak2 [2]
"CO[C@@]1(c2cc(OCCO)cc(-c3cn(C)c4cnc(NC(C)=O)cc34)n2)CCOC1 [Example 10, (R)-N-(3-(4-(2-Hydroxyethoxy)-6-(3-methoxytetrahydrofuran-3-yl)pyridin-2-yl)-1-methyl-1H-pyrrolo[2,3-c]pyridin-5)-ypacetamide]",297-fold,>275-fold
"CO[C@@]1(c2cccc(-c3cn([C@@H]4CC4(F)F)c4cnc(NC(N)=O)cc34)n2)CCOC1 [Example 1.2, 1-(1-((R)-2,2-difluorocyclopropyl)-3-(6-((R)-3-methoxytetrahydrofuran-3-yl)pyridin-2-yl)-1H-pyrrolo[2,3-c]pyridin-5-yl)urea]",300-fold,>556-fold
CO[C@@]1(c2cc(OCC[C@@H](C)O)cc(-c3cn(C)c4cnc(NC(C)=O)cc34)n2)CCOC1 [Example 7],39-fold,>28-fold
"CO[C@@]1(c2cc(C(F)F)cc(-c3cn(C4COC4)c4cnc(NC(C)=O)cc34)n2)CCOC1 [Example 4.3, (R)-N-(3-(4-(difluoromethyl)-6-(3-methoxytetrahydrofuran-3-yl)pyridin-2-yl)-1-(oxetan-3-yl)-1H-pyrrolo[2,3-c]pyridin-5-yl)acetamide]",310-fold,>144-fold
"COCc1cc(-c2cn(C3COC3)c3cnc(NC(C)=O)cc23)nc([C@]2(OC)CCOC2)c1 [Example 4, (R)-N-(3-(4-(methoxymethyl)-6-(3-methoxytetrahydrofuran-3-yl)pyridin-2-yl)-1-(oxetan-3-yl)-1H-pyrrolo[2,3-c]pyridin-5-yl)acetamide]",>730-fold,>182-fold
"CO[C@@]1(c2cc(C#N)cc(-c3cn(C)c4cnc(NC(N)=O)cc34)n2)CCOC1 [Example 12.3, (R)-1-(3-(4-cyano-6-(3-methoxytetrahydrofuran-3-yl)pyridin-2-yl)-1-methyl-1H-pyrrolo[2,3-c]pyridin-5-yl)urea]",138-fold,>266-fold
"CO[C@@]1(c2cc(O[C@H]3C[C@H](O)C3)cc(-c3cn(C)c4cnc(NC(C)=O)cc34)n2)CCOC1 [Example 11, N-(3-(4-((trans)-3-Hydroxycyclobutoxy)-6-((R)-3-methoxytetrahydrofuran-3-yl)pyridin-2-yl)-1-methyl-1H-pyrrolo[2,3-c]pyridin-5-yl)acetamide]",442-fold,>481-fold

# Results, then the compound that gave them:
Tyk2 selectivity over Jak1 [1],Tyk2 selectivity over Jak2 [2],Structure (SMILES)
393-fold,>281-fold,"CO[C@@]1(c2cc(OC(F)F)cc(-c3cn(C)c4cnc(NC(C)=O)cc34)n2)CCOC1 [Example 22.2, (R)-N-(3-(4-(difluoromethoxy)-6-(3-methoxytetrahydrofuran-3-yl)pyridin-2-yl)-1-methyl-1H-pyrrolo[2,3-c]pyridin-5-yl)acetamide]"
35-fold,>313-fold,"CC(=O)Nc1cc2c(-c3cccc([C@]4(CO)CCOC4)n3)cn(C)c2cn1 [Example 21, (S)-N-(3-(6-(3-(Hydroxymethyl)tetrahydrofuran-3-yl)pyridin-2-yl)-1-methyl-1H-pyrrolo[2,3-c]pyridin-5-yl)acetamide]"
>1087-fold,>272-fold,"COCc1cc(-c2cn(C)c3cnc(NC(=O)CO)cc23)nc([C@]2(OC)CCOC2)c1 [Example 24, (R)-2-hydroxy-N-(3-(4-(methoxymethyl)-6-(3-methoxytetrahydrofuran-3-yl)pyridin-2-yl)-1-methyl-1H-pyrrolo[2,3-c]pyridin-5-yl)acetamide]"
>500-fold,>500-fold,"CO[C@@]1(c2cc(C(F)F)cc(-c3cn(C)c4cnc(NC(=O)CO)cc34)n2)CCOC1 [Example 26, (R)-N-(3-(4-(difluoromethyl)-6-(3-methoxytetrahydrofuran-3-yl)pyridin-2-yl)-1-methyl-1H-pyrrolo[2,3-c]pyridin-5-yl)-2-hydroxyacetamide]"
470-fold,>187-fold,"CO[C@@]1(c2cc(O[C@@H](C)CCO)cc(-c3cn(C)c4cnc(NC(C)=O)cc34)n2)CCOC1 [Example 14.4, N-(3-(4-(((S)-4-hydroxybutan-2-yl)oxy)-6-((R)-3-methoxytetrahydrofuran-3-yl)pyridin-2-yl)-1-methyl-1H-pyrrolo[2,3-c]pyridin-5-yl)acetamide]"
